Assay results: patent US7683024B2, “Polyaminoacids functionalized by alpha tocopherol and uses thereof, particular for therapeutic applications” (Flamel Technologies, priority 2002, dated 2010)

Experiment: Comparative analysis of solutions at 15 mg/ml in water at pH 7.4 (phosphate buffer)
Assay type: physicochemical

Cc1c(C)c2c(c(C)c1OC(=O)CCC(=O)O)CC[C@@](C)(CCC[C@H](C)CCC[C@H](C)CCCC(C)C)O2 [α-tocopherol succinate]
Appearance of solution: milky solution
